Test results as given in publication PMC10426190 (Breast Cancer Research : BCR, 2023).

Test system: E2-induced (ER target) genes in MCF7
Assay: Gene expression analysis by RNA-sequencing in MCF7 with E2 stimulation
Type: cell-based, human
Conditions: MCF7; 1 nM E2 ± 1 μM compound, 24 h
Procedure: MCF7 were cultured in hormone deprivation media (with 10% charcoal-stripped FBS) for at least 3 days before assay. Trypsinized cells were seeded in a 12-well plate, stimulated with 1 nM β-estradiol (E2), and treated with/without 1 μM compounds for 24 h. Total RNA was extracted using the TRIzol reagent according to the manufacturer’s protocol. RNA purity and quantification were evaluated using the NanoDrop 2000 spectrophotometer (Thermo Scientific, USA). RNA integrity was assessed using the Agilent 2100 Bioanalyzer (Agilent Technologies, Santa Clara, CA, USA). Then the libraries were constructed using TruSeq Stranded mRNA LT Sample Prep Kit (Illumina, San Diego, CA, USA) according to the manufacturer’s instructions. The transcriptome sequencing and analysis were conducted by OE Biotech Co., Ltd. (Shanghai, China). The libraries were sequenced on an Illumina HiSeq X Ten platform and 150 bp paired-end reads were generated. […] Raw data (raw reads) of FASTq format were firstly processed using Trimmomatic and the low-quality reads were removed to obtain the clean reads. […] The clean reads were mapped to the human genome (GRCh38) using HISAT2 [27]. FPKM [28] of each gene was calculated using Cufflinks, and the read counts of each gene were obtained by HTSeqcount. Differential expression analysis was performed using the DESeq (2012) R package.
MCF7 with hormone-deprived pre-treatment were administrated ER ligands or not present with 1 nM E2 stimulation for 24 h incubation in a 12-well plate. Total mRNA was isolated from treated cells and sequenced on an Illumina HiSeq X Ten platform. FPKM of each gene was calculated using Cufflinks and Differential expression genes analysis by using the DESeq (2012) R package. […] T47D EFM-19 and HCC1500 cells were grown in RPMI media supplemented with 10% charcoal-stripped FBS for 14 days and then treated with ER antagonist (1 μM) or DMSO in the presence E2 (1nM) stimulation for 24 h before RNA isolation and gene expression analysis as described in methods. […] The uteruses were harvested 24 h after the final doses and stained by toluidine blue. Endometrial height was assessed from the basement membrane to the luminal border (scale bar in green lines: 200 μm), Arrows indicate the uterine epithelium (e).

**Q.** What does the source list for `C[C@]12CC[C@@H]3c4ccc(O)cc4C[C@@H](CCCCCCCCC[S+]([O-])CCCC(F)(F)C(F)(F)F)[C@H]3[C@@H]1CC[C@@H]2O` (some centres unmarked) [Fulvestrant]?
**A.** ACTG2 expression: 1.20 FPKM; ADCY1 expression: 6.76 FPKM; AGR3 expression: 2.46 FPKM; AMZ1 expression: 0.77 FPKM; ANLN expression: 18.71 FPKM; ARHGAP36 expression: 0.28 FPKM; ASCL1 expression: 0.54 FPKM; ASF1B expression: 26.04 FPKM; ASMTL-2 expression: 1.41 FPKM; ATAD2 expression: 23.77 FPKM; ATRNL1 expression: 0.05 FPKM; AURKB expression: 19.26 FPKM; BIRC5 expression: 23.46 FPKM; BLM expression: 2.45 FPKM; BMPER expression: 0.11 FPKM; BRCA1 expression: 2.96 FPKM; BRCA2 expression: 2.04 FPKM; BRIP1 expression: 17.34 FPKM; BUB1B expression: 8.27 FPKM; C1orf226 expression: 3.74 FPKM; C5AR2 expression: 0.51 FPKM; CA2 expression: 87.89 FPKM; CA12 expression: 18.70 FPKM; CALCR expression: 0.77 FPKM; CAV1 expression: 5.48 FPKM; CCN5 expression: 22.35 FPKM; CCNA2 expression: 15.79 FPKM; CCNE2 expression: 4.70 FPKM; CD99-2 expression: 1.09 FPKM; CDC6 expression: 4.59 FPKM; CDC25A expression: 1.67 FPKM; CDC45 expression: 5.51 FPKM; CDCA3 expression: 6.06 FPKM; CDCA4 expression: 12.74 FPKM; CDCA5 expression: 11.52 FPKM; CDCA7 expression: 1.84 FPKM; CDH26 expression: 0.21 FPKM; CDK1 expression: 14.26 FPKM; CDT1 expression: 21.42 FPKM; CENPI expression: 2.93 FPKM; CENPU expression: 4.96 FPKM; CHAF1B expression: 1.52 FPKM; CHEK1 expression: 2.32 FPKM; CKS1B expression: 46.61 FPKM; CLSPN expression: 1.80 FPKM; COL12A1 expression: 1.73 FPKM; CXCL12 expression: 1.70 FPKM; DDIAS expression: 2.63 FPKM; DHRSX-2 expression: 0.11 FPKM; DKK1 expression: 26.72 FPKM; DNA2 expression: 2.77 FPKM; DPYSL5 expression: 0.36 FPKM; DSCC1 expression: 4.38 FPKM; DTL expression: 1.38 FPKM; E2F1 expression: 7.00 FPKM; E2F2 expression: 1.27 FPKM; E2F7 expression: 2.55 FPKM; E2F8 expression: 3.66 FPKM; ELOVL2 expression: 3.33 FPKM; EME1 expression: 3.73 FPKM; ERCC6L expression: 1.34 FPKM; ESCO2 expression: 2.24 FPKM; ESPL1 expression: 7.73 FPKM; EXO1 expression: 2.15 FPKM; FAM20A expression: 0.46 FPKM; FAM111B expression: 2.82 FPKM; FANCA expression: 9.92 FPKM; FANCD2 expression: 5.42 FPKM; FANCI expression: 16.43 FPKM; FEN1 expression: 24.35 FPKM; FIGNL1 expression: 2.36 FPKM; FKBP4 expression: 43.52 FPKM; GATA4 expression: 0.00 FPKM; GFRA1 expression: 26.23 FPKM; GINS1 expression: 8.52 FPKM; GINS2 expression: 8.09 FPKM; GJA1 expression: 0.06 FPKM; GLA expression: 31.47 FPKM; GP1BB expression: 0.79 FPKM; GPR68 expression: 0.13 FPKM; GPRIN1 expression: 2.95 FPKM; GREB1 expression: 3.94 FPKM; H2AX expression: 89.38 FPKM; HBB expression: 0.00 FPKM; HELLS expression: 2.89 FPKM; HEY2 expression: 0.43 FPKM; HMGB2 expression: 118.94 FPKM; IGFBP4 expression: 26.82 FPKM; IGSF1 expression: 3.55 FPKM; ITGA2B expression: 0.30 FPKM; KIF11 expression: 11.20 FPKM; KIF18B expression: 4.13 FPKM; KIFC1 expression: 12.36 FPKM; KLK11 expression: 1.75 FPKM; KNL1 expression: 3.41 FPKM; KNTC1 expression: 5.81 FPKM; LHX2 expression: 1.30 FPKM; LIG1 expression: 19.47 FPKM; LMNB1 expression: 49.03 FPKM; MAD2L1 expression: 6.32 FPKM; MCM2 expression: 24.98 FPKM; MCM3 expression: 30.18 FPKM; MCM4 expression: 38.73 FPKM; MCM5 expression: 9.71 FPKM; MCM6 expression: 18.69 FPKM; MCM7 expression: 65.17 FPKM; MCM10 expression: 2.51 FPKM; MELK expression: 9.66 FPKM; MKI67 expression: 19.11 FPKM; MYB expression: 3.86 FPKM; MYBL1 expression: 0.96 FPKM; MYBL2 expression: 29.90 FPKM; NCAPG2 expression: 15.05 FPKM; NCAPG expression: 5.76 FPKM; NPY1R expression: 3.20 FPKM; ORC1 expression: 2.67 FPKM; ORC6 expression: 5.57 FPKM; PAQR4 expression: 9.57 FPKM; PBK expression: 14.24 FPKM; PCLAF expression: 28.12 FPKM; PCNA expression: 48.34 FPKM; PDZK1 expression: 0.47 FPKM; PGR expression: 0.52 FPKM; PKIB expression: 16.14 FPKM; PKMYT1 expression: 9.90 FPKM; POLA1 expression: 2.69 FPKM; POLA2 expression: 4.51 FPKM; POLD1 expression: 11.19 FPKM; POLE2 expression: 2.45 FPKM; POLE expression: 11.56 FPKM; POLQ expression: 2.64 FPKM; PRIM1 expression: 7.88 FPKM; PRSS23 expression: 49.30 FPKM; RAB31 expression: 6.58 FPKM; RAD51AP1 expression: 5.24 FPKM; RAD51 expression: 3.28 FPKM; RAD54L expression: 3.44 FPKM; RAMP3 expression: 0.40 FPKM; RAPGEFL1 expression: 2.18 FPKM; RBL1 expression: 2.06 FPKM; RECQL4 expression: 10.79 FPKM; RERG expression: 2.17 FPKM; RET expression: 1.74 FPKM; RFC2 expression: 14.47 FPKM; RFC3 expression: 3.82 FPKM; RFC4 expression: 10.05 FPKM; RNASEH2A expression: 24.71 FPKM; RRM1 expression: 19.08 FPKM; RRM2 expression: 24.81 FPKM; RUBCNL expression: 0.10 FPKM; SDK2 expression: 0.25 FPKM; SFXN2 expression: 7.17 FPKM; SHCBP1 expression: 2.87 FPKM; SKA3 expression: 4.69 FPKM; SLC6A14 expression: 8.71 FPKM; SMC2 expression: 6.16 FPKM; SPC24 expression: 6.59 FPKM; SPC25 expression: 6.79 FPKM; STC2 expression: 28.34 FPKM; TACC3 expression: 19.06 FPKM; TCF19 expression: 6.28 FPKM; TCOF1 expression: 9.75 FPKM; TGM2 expression: 0.56 FPKM; TICRR expression: 3.71 FPKM; TK1 expression: 42.16 FPKM; TMEM26 expression: 0.84 FPKM; TMEM164 expression: 6.22 FPKM; TONSL expression: 9.44 FPKM; TOP2A expression: 29.21 FPKM; TP73 expression: 1.03 FPKM; TRIP13 expression: 6.92 FPKM; TUBA1B expression: 473.72 FPKM; TUBB expression: 230.78 FPKM; TYMS expression: 25.13 FPKM; UBE2C expression: 32.42 FPKM; UBE2T expression: 45.52 FPKM; UHRF1 expression: 6.71 FPKM; UNG expression: 29.02 FPKM; WDHD1 expression: 4.38 FPKM; WDR62 expression: 5.55 FPKM; WDR76 expression: 1.69 FPKM; XRCC2 expression: 2.48 FPKM; XRCC3 expression: 5.83 FPKM; ZGRF1 expression: 1.75 FPKM; ZNF367 expression: 4.18 FPKM
